Reference: patent US20260327191A1, “GSK3a INHIBITORS AND METHODS OF USE THEREOF” (Blueprint Medicines Corporation, priority 2023, published 2026)

What was measured:
GSK3B [1] = target: T1, GSK3B (Homo sapiens, UniProt P49841); experiment: NanoBRET cellular target engagement assay, Nanoluc-GSK3B in HEK293 cells; type: cell-based; parameters: expressed in transfected cells; conditions: NanoBRET GSK3β IC50, HEK293 cells, tracer K-8, 2 hours, 37° C
GSK3B [2] = target: T1, GSK3B; experiment: In vitro enzymatic activity assay, GSK3β; type: biochemical; parameters: Full length human GSK3α or GSK3B expressed as N-terminal GST fusion proteins; GST (N); purchased Carna Biosciences (Japan); host or cells: baculovirus host; conditions: 1.0 mM ATP, 1.0 μM peptide substrate, 120 min, 25° C, read-out: Enzyme GSK3β (IC50)
GSK3A = target: T2, GSK3A (Homo sapiens, UniProt P49840); experiment: NanoBRET cellular target engagement assay, Nanoluc-GSK3A in HEK293 cells; type: cell-based; conditions: NanoBRET GSK3α IC50, HEK293 cells, tracer K-8, 2 hours, 37° C
T2 construct: expressed in transfected cells

human GSK3α = target: T3, human GSK3α (Homo sapiens, UniProt P49840); experiment: In vitro enzymatic activity assay, GSK3α; type: biochemical; conditions: 1.0 mM ATP, 1.0 μM peptide substrate, 120 min, 25° C, read-out: Enzyme GSK3α (IC50)
T3 construct: Full length human GSK3α or GSK3B expressed as N-terminal GST fusion proteins; GST (N); purchased Carna Biosciences (Japan); host or cells: baculovirus host
T3 sequence (P49840 whole entry, the tested form may be a part): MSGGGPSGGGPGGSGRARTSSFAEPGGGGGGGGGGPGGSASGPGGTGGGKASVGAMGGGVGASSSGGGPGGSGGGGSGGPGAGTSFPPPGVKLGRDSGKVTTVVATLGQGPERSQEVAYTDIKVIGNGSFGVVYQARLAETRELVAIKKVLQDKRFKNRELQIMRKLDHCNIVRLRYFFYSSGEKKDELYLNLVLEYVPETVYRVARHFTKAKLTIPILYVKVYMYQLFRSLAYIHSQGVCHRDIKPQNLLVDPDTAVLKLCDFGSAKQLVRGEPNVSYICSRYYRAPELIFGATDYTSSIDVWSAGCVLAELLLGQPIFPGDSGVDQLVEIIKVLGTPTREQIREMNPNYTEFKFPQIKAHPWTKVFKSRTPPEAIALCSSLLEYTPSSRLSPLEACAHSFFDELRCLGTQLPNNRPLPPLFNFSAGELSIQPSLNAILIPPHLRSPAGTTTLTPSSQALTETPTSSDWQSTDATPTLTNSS

T2 sequence (P49840 whole entry): as the sequence (P49840 whole entry, the tested form may be a part) above
T1 sequence (P49841 whole entry, the tested form may be a part): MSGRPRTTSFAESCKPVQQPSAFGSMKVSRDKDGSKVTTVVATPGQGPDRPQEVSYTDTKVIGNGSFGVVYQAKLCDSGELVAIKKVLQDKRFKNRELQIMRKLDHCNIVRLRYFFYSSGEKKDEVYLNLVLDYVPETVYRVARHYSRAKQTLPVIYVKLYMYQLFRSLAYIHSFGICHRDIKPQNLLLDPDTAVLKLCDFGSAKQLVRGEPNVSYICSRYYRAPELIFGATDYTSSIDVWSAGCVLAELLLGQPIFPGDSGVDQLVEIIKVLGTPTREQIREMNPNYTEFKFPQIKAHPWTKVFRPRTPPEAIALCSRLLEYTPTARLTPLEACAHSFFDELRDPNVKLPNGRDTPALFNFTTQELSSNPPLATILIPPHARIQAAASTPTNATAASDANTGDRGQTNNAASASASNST

COCc1cc(C)c(-n2cnc(N)c(C(=O)Nc3cncc(C4CNC(=O)CN4)c3)c2=O)c(C)c1 (single isomer, unassigned) [Example 159, (R)-4-amino-1-(4-(methoxymethyl)-2,6-dimethylphenyl)-6-oxo-N-(5-(5-oxopiperazin-2-yl)pyridin-3-yl)-1,6-dihydropyrimidine-5-carboxamide or (S)-4-amino-1-(4-(methoxymethyl)-2,6-dimethylphenyl)-6-oxo-N-(5-(5-oxopiperazin-2-yl)pyridin-3-yl)-1,6-dihydropyrimidine-5-carboxamide]
IC50 (GSK3B [1]): 5790 nM
IC50 (GSK3B [2]): 2080 nM
IC50 (GSK3A): 76.9 nM
IC50 (human GSK3α): 90.6 nM

COCc1cc(C)c(-n2cnc(N)c(C(=O)Nc3cncc(C4CNC(=O)CN4)c3)c2=O)c(C)c1 (single isomer, unassigned) [Example 160, (R)-4-amino-1-(4-(methoxymethyl)-2,6-dimethylphenyl)-6-oxo-N-(5-(5-oxopiperazin-2-yl)pyridin-3-yl)-1,6-dihydropyrimidine-5-carboxamide or (S)-4-amino-1-(4-(methoxymethyl)-2,6-dimethylphenyl)-6-oxo-N-(5-(5-oxopiperazin-2-yl)pyridin-3-yl)-1,6-dihydropyrimidine-5-carboxamide]
IC50 (GSK3B [1]): 11300 nM
IC50 (GSK3B [2]): 2320 nM
IC50 (GSK3A): 197 nM
IC50 (human GSK3α): 161 nM

COc1ccccc1-n1cnc(N)c(C(=O)Nc2cccc(C3CCCN3)c2N2CCOCC2)c1=O (single isomer, unassigned) [Example 166, (S)-4-amino-1-(2-methoxyphenyl)-N-(2-morpholino-3-(pyrrolidin-2-yl)phenyl)-6-oxo-1,6-dihydropyrimidine-5-carboxamide or (R)-4-amino-1-(2-methoxyphenyl)-N-(2-morpholino-3-(pyrrolidin-2-yl)phenyl)-6-oxo-1,6-dihydropyrimidine-5-carboxamide]
IC50 (GSK3B [1]): 16100 nM
IC50 (GSK3B [2]): 9380 nM
IC50 (GSK3A): 177 nM
IC50 (human GSK3α): 285 nM

Nc1ncn(-c2c(Cl)cccc2Cl)c(=O)c1C(=O)Nc1cccc(C2CCCN2)c1F (single isomer, unassigned) [Example 167, (S)-4-amino-1-(2,6-dichlorophenyl)-N-(2-fluoro-3-(pyrrolidin-2-yl)phenyl)-6-oxo-1,6-dihydropyrimidine-5-carboxamide or (R)-4-amino-1-(2,6-dichlorophenyl)-N-(2-fluoro-3-(pyrrolidin-2-yl)phenyl)-6-oxo-1,6-dihydropyrimidine-5-carboxamide]
IC50 (GSK3B [1]): 1860 nM
IC50 (GSK3B [2]): 1810 nM
IC50 (GSK3A): 27.2 nM
IC50 (human GSK3α): 45.4 nM

Nc1ncn(-c2c(Cl)cccc2Cl)c(=O)c1C(=O)Nc1cccc(C2CCCN2)c1F (single isomer, unassigned) [Example 168, (S)-4-amino-1-(2,6-dichlorophenyl)-N-(2-fluoro-3-(pyrrolidin-2-yl)phenyl)-6-oxo-1,6-dihydropyrimidine-5-carboxamide or (R)-4-amino-1-(2,6-dichlorophenyl)-N-(2-fluoro-3-(pyrrolidin-2-yl)phenyl)-6-oxo-1,6-dihydropyrimidine-5-carboxamide]
IC50 (GSK3B [1]): 1470 nM
IC50 (GSK3B [2]): 1530 nM
IC50 (GSK3A): 27.1 nM
IC50 (human GSK3α): 49.3 nM

COc1c(NC(=O)c2c(N)ncn(-c3c(Cl)cccc3Cl)c2=O)cccc1C1CCCN1 (single isomer, unassigned) [Example 169, (R)-4-amino-1-(2,6-dichlorophenyl)-N-(2-methoxy-3-(pyrrolidin-2-yl)phenyl)-6-oxo-1,6-dihydropyrimidine-5-carboxamide or (S)-4-amino-1-(2,6-dichlorophenyl)-N-(2-methoxy-3-(pyrrolidin-2-yl)phenyl)-6-oxo-1,6-dihydropyrimidine-5-carboxamide]
IC50 (GSK3B [1]): 103 nM
IC50 (GSK3B [2]): 105 nM
IC50 (GSK3A): 2 nM
IC50 (human GSK3α): 4.2 nM

COc1cc(Cl)c(-n2cnc(N)c(C(=O)Nc3cnnc(C4CCCCN4)c3)c2=O)c(Cl)c1 (single isomer, unassigned) [Example 172, (R)-4-amino-1-(2,6-dichloro-4-methoxyphenyl)-6-oxo-N-(6-(piperidin-2-yl)pyridazin-4-yl)-1,6-dihydropyrimidine-5-carboxamide or (S)-4-amino-1-(2,6-dichloro-4-methoxyphenyl)-6-oxo-N-(6-(piperidin-2-yl)pyridazin-4-yl)-1,6-dihydropyrimidine-5-carboxamide]
IC50 (GSK3B [1]): 98.8 nM
IC50 (GSK3B [2]): 260 nM
IC50 (GSK3A): 3.5 nM
IC50 (human GSK3α): 6.3 nM

CO[C@H](C)c1cc(C)c(-n2cnc(N)c(C(=O)Nc3cncc([C@@H](C)N)c3)c2=O)c(C)c1 (single isomer, unassigned) [Example 174]
IC50 (GSK3B [1]): 560 nM
IC50 (GSK3B [2]): 705 nM
IC50 (GSK3A): 8.7 nM
IC50 (human GSK3α): 28 nM

CO[C@H](C)c1cc(C)c(-n2cnc(N)c(C(=O)Nc3cncc([C@@H](C)N)c3)c2=O)c(C)c1 (single isomer, unassigned) [Example 175]
IC50 (GSK3B [1]): 581 nM
IC50 (GSK3B [2]): 803 nM
IC50 (GSK3A): 8.1 nM
IC50 (human GSK3α): 32.6 nM

CCOC[C@@H](N)c1cncc(NC(=O)c2c(N)ncn(-c3c(C)cc(COC)cc3C)c2=O)c1 (single isomer, unassigned) [Example 177, (S)-4-amino-N-(5-(1-amino-2-ethoxyethyl)pyridin-3-yl)-1-(4-(methoxymethyl)-2,6-dimethylphenyl)-6-oxo-1,6-dihydropyrimidine-5-carboxamide or (R)-4-amino-N-(5-(1-amino-2-ethoxyethyl)pyridin-3-yl)-1-(4-(methoxymethyl)-2,6-dimethylphenyl)-6-oxo-1,6-dihydropyrimidine-5-carboxamide]
IC50 (GSK3B [1]): 283 nM
IC50 (GSK3B [2]): 200 nM
IC50 (GSK3A): 2.8 nM
IC50 (human GSK3α): 4 nM

CC1CCC(c2cccc(NC(=O)c3c(N)ncn(-c4c(Cl)cccc4Cl)c3=O)c2)N1 (single isomer, unassigned) [Example 180, 4-amino-1-(2,6-dichlorophenyl)-N-(3-((2R,5R)-5-methylpyrrolidin-2-yl)phenyl)-6-oxo-1,6-dihydropyrimidine-5-carboxamide or 4-amino-1-(2,6-dichlorophenyl)-N-(3-((2S,5S)-5-methylpyrrolidin-2-yl)phenyl)-6-oxo-1,6-dihydropyrimidine-5-carboxamide]
IC50 (GSK3B [1]): 322 nM
IC50 (GSK3B [2]): 298 nM
IC50 (GSK3A): 4.7 nM
IC50 (human GSK3α): 6.4 nM

Cc1cc([C@@H](C)F)cc(C)c1-n1cnc(N)c(C(=O)Nc2cncc([C@H]3CCCCN3)c2)c1=O (single isomer, unassigned) [Example 184, 4-amino-1-(4-((R)-1-fluoroethyl)-2,6-dimethylphenyl)-6-oxo-N-(5-((R)-piperidin-2-yl)pyridin-3-yl)-1,6-dihydropyrimidine-5-carboxamide or 4-amino-1-(4-((S)-1-fluoroethyl)-2,6-dimethylphenyl)-6-oxo-N-(5-((R)-piperidin-2-yl)pyridin-3-yl)-1,6-dihydropyrimidine-5-carboxamide]
IC50 (GSK3B [1]): 167 nM
IC50 (GSK3B [2]): 175 nM
IC50 (GSK3A): 2.1 nM
IC50 (human GSK3α): 3.9 nM
